pIC50: −log10 of the molar value.
Test: Inhibition of Src-transfected 3T3 cell proliferation

Compound	pIC50
COc1cnc(Cl)c(Nc2ncnc3cc(OCCN4CCN(C(C)=O)CC4)cc(OC(C)C)c23)n1 [1-(4-(2-(4-(3-chloro-6-methoxypyrazin-2-ylamino)-5-isopropoxyquinazolin-7-yloxy)ethyl)piperazin-1-yl)ethanone]	7.15
COc1ccc(Cl)c(Nc2ncnc3cc(OCCCN4CCN(C(C)=O)CC4)cc(OC(C)C)c23)n1 [1-(4-(3-(4-(3-chloro-6-methoxypyridin-2-ylamino)-5-isopropoxyquinazolin-7-yloxy)propyl)piperazin-1-yl)ethanone]	7.70
COc1ccc(Cl)c(Nc2ncnc3cc(OCCCN4CCOCC4)cc(OC(C)C)c23)c1 [N-(2-chloro-5-methoxyphenyl)-7-[3-(morpholin-4-yl)propoxy]-5-(propan-2-yloxy)quinazolin-4-amine]	6.82
COc1cnc(Cl)c(Nc2ncnc3cc(OCCCN4CCOCC4)cc(OC(C)C)c23)c1 [N-(2-chloro-5-methoxypyridin-3-yl)-5-isopropoxy-7-(3-morpholinopropoxy)quinazolin-4-amine]	6.82
COc1cnc(Cl)c(Nc2ncnc3cc(OCCCN4CCOCC4)cc(OC4CCOCC4)c23)c1 [N-(2-chloro-5-methoxypyridin-3-yl)-7-(3-morpholinopropoxy)-5-(tetrahydro-2H-pyran-4-yloxy)quinazolin-4-amine]	6.85
COc1ccc(Cl)c(Nc2ncnc3cc(OCCCN4CCOCC4)cc(OC4CCOCC4)c23)n1 [N-(3-chloro-6-methoxypyridin-2-yl)-7-(3-morpholinopropoxy)-5-(tetrahydro-2H-pyran-4-yloxy)quinazolin-4-amine]	7.15
COc1cc(Nc2ncnc3cc(OCCCN4CCOCC4)cc(OC(C)C)c23)c(Cl)cn1 [N-(5-chloro-2-methoxypyridin-4-yl)-5-isopropoxy-7-(3-morpholinopropoxy)quinazolin-4-amine]	6.46

Further lines, results first:

pIC50	Compound
7.22	COc1ccc(Cl)c(Nc2ncnc3cc(OCCN4CCN(C(C)=O)CC4)cc(OC(C)C)c23)n1 [1-(4-(2-(4-(3-chloro-6-methoxypyridin-2-ylamino)-5-isopropoxyquinazolin-7-yloxy)ethyl)piperazin-1-yl)ethanone]
6.92	COc1ccc(Cl)c(Nc2ncnc3cc(OCCN4CCCC4)cc(OC(C)C)c23)n1 [N-(3-chloro-6-methoxypyridin-2-yl)-5-isopropoxy-7-(2-(pyrrolidin-1-yl)ethoxy)quinazolin-4-amine]
6.92	COc1ccc(Cl)c(Nc2ncnc3cc(OCCN4CCOCC4)cc(OC(C)C)c23)n1 [N-(3-chloro-6-methoxypyridin-2-yl)-5-isopropoxy-7-(2-morpholinoethoxy)quinazolin-4-amine]
7.22	COc1ccc(Cl)c(Nc2ncnc3cc(OCCCN4CCN(C)CC4)cc(OC(C)C)c23)n1 [N-(3-chloro-6-methoxypyridin-2-yl)-5-isopropoxy-7-(3-(4-methylpiperazin-1-yl)propoxy)quinazolin-4-amine]
7.15	COc1ccc(Cl)c(Nc2ncnc3cc(OCCCN4CCCC4)cc(OC(C)C)c23)n1 [N-(3-chloro-6-methoxypyridin-2-yl)-5-isopropoxy-7-(3-(pyrrolidin-1-yl)propoxy)quinazolin-4-amine]
7.52	COc1ccc(Cl)c(Nc2ncnc3cc(OCCCN4CCOCC4)cc(OC(C)C)c23)n1 [N-(3-chloro-6-methoxypyridin-2-yl)-5-isopropoxy-7-(3-morpholinopropoxy)quinazolin-4-amine]

From BindingDB's records for doi:10.1016/j.bmcl.2005.08.106 (Astrazeneca, 2005)
